Data: paper PMC9426601 (mBio, 2022)
Read-outs that look alike come from different tables or passages of the source.

How the values were obtained:
A(H3N2)-PA/I38T [1] = format: cell-based, influenza A(H3N2) virus
A(H1N1pdm09)-PA/E23K [2] = format: cell-based, influenza A(H1N1pdm09) virus
A(H3N2)-PA/I38T [3] = format: cell-based, influenza A(H3N2) virus; remark: listed apart in the source
A(H1N1pdm09)-PA/E23K [4] = format: cell-based, influenza A(H1N1pdm09) virus; remark: listed apart in the source
[5] = tested on: A(H3N2) 80% WT: 20% PA/I38T; set-up: species or system ferrets (Mustela putorius furo); AUC (area under the curve of nasal wash viral titer): unit not given beside the values; settings: in vivo
A(H3N2) 100% PA/I38T = tested on: A(H3N2) 100% PA/I38T; set-up: species or system ferrets (Mustela putorius furo); AUC (area under the curve of nasal wash viral titer): unit not given beside the values; settings: in vivo
[6] = tested on: A(H1N1pdm09) 80% WT: 20% PA/E23K; set-up: species or system ferrets (Mustela putorius furo); AUC (area under the curve of nasal wash viral titer): unit not given beside the values; settings: in vivo
[7] = tested on: A(H1N1pdm09) 100% PA/E23K; set-up: species or system ferrets (Mustela putorius furo); AUC (area under the curve of nasal wash viral titer): unit not given beside the values; settings: in vivo
[8] = molecular target: NA activity of A(H3N2)-PA/I38T (Influenza A virus, UniProt P06818); format: biochemical
[9] = molecular target: NA activity of A(H1N1pdm09)-PA/E23K (Influenza A virus, UniProt C7FH46); format: biochemical; settings: read-out: IC50 (nM), neuraminidase inhibitor
[10] = read-out: Baloxavir EC50 (nM) FRA
[11] = read-out: Baloxavir EC50 (nM) YRA
[12] = read-out: Oseltamivir IC50 (nM) YRA

## O=C1c2c(O)c(=O)ccn2N([C@@H]2c3ccccc3SCc3c2ccc(F)c3F)[C@@H]2COCCN12 [Baloxavir, baloxavir acid]
A(H3N2)-PA/I38T [1]
  fold higher EC50 compared to the corresponding pretreatment virus, FRA: 77 fold
A(H3N2)-PA/I38T [1]; [10]
  EC50: 46 ± 6.9 nM
A(H1N1pdm09)-PA/E23K [2]
  fold higher EC50 compared to the corresponding pretreatment virus, FRA: 17 fold
A(H1N1pdm09)-PA/E23K [2]; [10]
  EC50: 20.8 ± 10.2 nM
A(H3N2)-PA/I38T [3]
  fold increase in EC50 compared to the corresponding WT, YRA: 100 fold
A(H3N2)-PA/I38T [3]; [11]
  EC50: 40.1 ± 15.6 nM
A(H1N1pdm09)-PA/E23K [4]
  fold increase in EC50 compared to the corresponding WT, YRA: 9 fold
A(H1N1pdm09)-PA/E23K [4]; [11]
  EC50: 2.6 ± 0.07 nM
[5]
  AUC (area under the curve of nasal wash viral titer): 18.6 ± 1.4
  Duration of viral shedding: 4.7 ± 0.5 days
A(H3N2) 100% PA/I38T
  AUC (area under the curve of nasal wash viral titer): 23.4 ± 1.4
  Duration of viral shedding: 5.7 ± 0.5 days
  reduction in AUC relative to placebo: 10%
  reduction in viral shedding relative to placebo: 0.6 days
[6]
  AUC (area under the curve of nasal wash viral titer): 24.7 ± 2.4
  Duration of viral shedding: 5.3 ± 0.5 days
  reduction in AUC relative to placebo: 6%
[7]
  AUC (area under the curve of nasal wash viral titer): 28.6 ± 0.8
  Duration of viral shedding: 6.3 ± 0.5 days
  rapid reduction in viral load in the first 24 h following treatment: not observed
  reduction in AUC relative to placebo: no significant difference

## CCOC(=O)C1=C[C@@H](OC(CC)CC)[C@H](NC(C)=O)[C@@H](N)C1 [Oseltamivir, oseltamivir]
A(H3N2)-PA/I38T [3]; [12]
  IC50: […]
A(H1N1pdm09)-PA/E23K [4]; [12]
  IC50: […]
[8]; read-out: Oseltamivir IC50 (nM) NIA
  IC50: […]
[5]
  AUC (area under the curve of nasal wash viral titer): […]
  Duration of viral shedding: […]
A(H3N2) 100% PA/I38T
  Duration of viral shedding: […]
[6]
  AUC greater than placebo: 7%
[7]
  AUC (area under the curve of nasal wash viral titer): […]
  Duration of viral shedding: […]

## CCC(CC)[C@H](NC(C)=O)[C@@H]1[C@H](O)[C@@H](C(=O)O)C[C@H]1N=C(N)N [Peramivir]
[8]; read-out: IC50 (nM), neuraminidase inhibitor
  IC50: 0.12 ± 0.1 nM
[9]
  IC50: 0.17 ± 0.01 nM
